From patent publication US4585859A, “Analogues of morpholinyl daunorubicin and morpholinyl doxorubicin” (priority 1984, dated 1986)
Where “and” joins values, the source holds several entries; their conditions need not be identical. Equal entries are not always repeated. Where two headings read alike, the source gives them in different places.

Assays:
P-388 leukemia = assay: Mouse antitumor efficacy vs P-388 leukemia (Table B)
[1] = tested on: DNA synthesis in L 1210 Cells; assay: Inhibition of DNA synthesis in L 1210 Cells; format: cell-based, mouse
B-16 Melanoma = assay: Mouse antitumor efficacy vs B-16 Melanoma (Table B)
[2] = tested on: RNA synthesis in L 1210 Cells; assay: Inhibition of RNA synthesis in L 1210 Cells; format: cell-based, mouse
[3] = tested on: Lymphocyte Leukemia P-388; assay: Survival time of mice inoculated i.p. with Lymphocyte Leukemia P-388, treated days 5, 9 and 13 (Table A); format: in vivo, mouse; conditions: for T/C vs mouse leukemia P388: at 50 mg/kg (thiomorpholino) or 8 mg/kg (doxorubicin); for dose required vs mouse leukemia P388: dose for the T/C quoted
[4] = prior art; cited from earlier work
mouse leukemia P388 = conditions: cited from earlier work; for T/C value against P388: U.S. Pat. No. 4,301,277; for activity in mouse leukemia P388 screen / dose requirement in P388 screen: 3-dose schedule q4d 5,9,13
DNA = conditions: cited from earlier work
heart = conditions: some patients; cited from earlier work
[5] = tested on: tumors (colon cancer, melanoma); conditions: cited from earlier work
[6] = Mus musculus, L1210, read-out: Leukemia L-1210 Cells Inhibition of Synthesis ED50, DNA
[7] = P-388 in mice, q4d 5,9,13, at optimum dose
[8] = Mus musculus, L1210, read-out: Leukemia L-1210 Cells Inhibition of Synthesis ED50, RNA
[9] = Mus musculus, L1210, L-1210 cells, DNA synthesis, read-out: Leukemia L-1210 Cells Inhibition of Synthesis ED50, DNA
[10] = Mus musculus, L1210, L-1210 cells, RNA synthesis, read-out: Leukemia L-1210 Cells Inhibition of Synthesis ED50, RNA

COc1cccc2c1C(=O)c1c(O)c3c(c(O)c1C2=O)C[C@@](O)(C(C)=O)C[C@@H]3O[C@H]1C[C@H](N2CCOCC2C#N)[C@H](O)[C@H](C)O1 (stereo partly shown) [NSC 332304, 3'-deamino-3'-(3"-cyano-4"-morpholinyl)daunorubicin]
Mouse Antitumor Efficacy at Optimum Dose, % T/C (P-388 leukemia; ip P388, d 1, ip): 175% | Optimum Dose (P-388 leukemia; ip P388, d 1, ip): 0.25 mg/kg | Mouse Antitumor Efficacy at Optimum Dose, % T/C (P-388 leukemia; ip P388, d 1, iv): 157% | Optimum Dose (P-388 leukemia; ip P388, d 1, iv): 0.5 mg/kg | IC50 [1, 6]: 12 nM | Mouse Antitumor Efficacy at Optimum Dose, % T/C (B-16 Melanoma; section "ip B16", d 1, ip): 138% | inhibition of RNA vs DNA synthesis [2]: much more inhibitory toward RNA synthesis than toward DNA synthesis | Survival Time, % T/C [3, 7]: 197%

COc1cccc2c1C(=O)c1c(O)c3c(c(O)c1C2=O)C[C@@](O)(C(=O)CO)C[C@@H]3O[C@H]1C[C@H](N2CCOCC2)[C@H](O)[C@H](C)O1 [NSC 354646, 3'-deamino-3'-(4"-morpholinyl)doxorubicin]
Mouse Antitumor Efficacy at Optimum Dose, % T/C (P-388 leukemia; ip P388, d 1, ip): 182% | Optimum Dose (P-388 leukemia; ip P388, d 1, ip): 0.05 mg/kg | Mouse Antitumor Efficacy at Optimum Dose, % T/C (P-388 leukemia; ip P388, d 1, iv): > 143% | Optimum Dose (P-388 leukemia; ip P388, d 1, iv): 0.062 mg/kg | Mouse Antitumor Efficacy at Optimum Dose, % T/C (P-388 leukemia; ip P388, q4d 1,5,9, ip): 224% | Optimum Dose (P-388 leukemia; ip P388, q4d 1,5,9, ip): 0.05 mg/kg | Mouse Antitumor Efficacy at Optimum Dose, % T/C (P-388 leukemia; ip P388, q4d 1,5,9, po): 175% | Optimum Dose (P-388 leukemia; ip P388, q4d 1,5,9, po): 0.05 mg/kg | Mouse Antitumor Efficacy at Optimum Dose, % T/C (P-388 leukemia; ip P388, qd 1-9, ip): 209% | Optimum Dose (P-388 leukemia; ip P388, qd 1-9, ip): 0.0125 mg/kg

COc1cccc2c1C(=O)c1c(O)c3c(c(O)c1C2=O)C[C@@](O)(C(C)=O)C[C@@H]3O[C@H]1C[C@H](N2CCC(OC)CC2)[C@H](O)[C@H](C)O1 [NSC 334353, 3-deamino-3'-(4"-methoxy-1"-piperidinyl)-daunorubicin]
IC50 [1, 6]: 630 nM | IC50 [2, 8]: 120 nM | Survival Time, % T/C [3, 7]: 199%

COc1cccc2c1C(=N)c1c(O)c3c(c(O)c1C2=O)C[C@@](O)(C(C)=O)C[C@@H]3O[C@H]1C[C@H](N)[C@H](O)[C@H](C)O1 [5-Iminodaunorubicin]
antitumor activity, side effects and dosage [4]: retained activity with reduced side effects

COc1cccc2c1C(=O)c1c(O)c3c(c(O)c1C2=O)C[C@@](O)(C(C)=O)C[C@@H]3O[C@H]1C[C@H](N)[C@H](O)[C@H](C)O1 [daunorubicin]
IC50 [1, 6]: 660 nM | Mouse Antitumor Efficacy at Optimum Dose, % T/C (B-16 Melanoma; mouse, in vivo, ip): 195% | IC50 [2, 8]: 330 nM | Survival Time, % T/C ([3]; mouse, in vivo): 130%

COc1cccc2c1C(=O)c1c(O)c3c(c(O)c1C2=O)C[C@@](O)(C(C)O)C[C@@H]3O[C@H]1C[C@H](N2CCOCC2C#N)[C@H](O)[C@H](C)O1 (stereo partly shown) [NSC 332305, 3'-deamino-3'-(3"-cyano-4"-morpholinyl)-13-dihydrodaunorubicin]
IC50 [1, 6]: 19 nM | Mouse Antitumor Efficacy at Optimum Dose, % T/C (B-16 Melanoma; section "ip B16", d 1, ip): 131% | inhibition of RNA vs DNA synthesis [2]: much more inhibitory toward RNA synthesis than toward DNA synthesis | Survival Time, % T/C [3, 7]: 143%

COc1cccc2c1C(=O)c1c(O)c3c(c(O)c1C2=O)C[C@@](O)(C(O)CO)C[C@@H]3O[C@H]1C[C@H](N2CCOCC2C#N)[C@H](O)[C@H](C)O1 (stereo partly shown) [NSC 360291, 3'-deamino-3'-(3"-cyano-4"-morpholinyl)-13-dihydrodoxorubicin]
Mouse Antitumor Efficacy at Optimum Dose, % T/C (P-388 leukemia; mouse, in vivo, ip): 183% and 267% | Optimum Dose (P-388 leukemia; mouse, in vivo, ip): 0.05 mg/kg and 0.025 mg/kg | Mouse Antitumor Efficacy at Optimum Dose, % T/C (B-16 Melanoma; mouse, in vivo, ip): 149% and 121% | Survival Time, % T/C [3, 7]: 150%

COc1cccc2c1C(=O)c1c(O)c3c(c(O)c1C2=O)C[C@@](O)(C(=O)CO)C[C@@H]3O[C@H]1C[C@H](N2C(=O)COCC2C#N)[C@H](O)[C@H](C)O1 (stereo partly shown) [3'-deamino-3'-(3"-cyano-5"-oxo-4"-morpholinyl)-doxorubicin]
IC50 ([1]; l1210 cells, read-out: Leukemia L-1210 Cells Inhibition of Synthesis ED50, DNA): 50 nM | IC50 ([2]; l1210 cells, read-out: Leukemia L-1210 Cells Inhibition of Synthesis ED50, RNA): 30 nM

COc1cccc2c1C(=O)c1c(O)c3c(c(O)c1C2=O)C[C@@](O)(C(=O)CO)C[C@@H]3O[C@H]1C[C@H](N2CCOCC2C#N)[C@H](O)[C@H](C)O1 (stereo partly shown) [NSC 357704, 3'-deamino-3'-(3"-cyano-4"-morpholinyl)doxorubicin]
Mouse Antitumor Efficacy at Optimum Dose, % T/C (P-388 leukemia; mouse, in vivo): 152% and > 158% | Optimum Dose (P-388 leukemia; mouse, in vivo): 0.05 mg/kg and 0.1 mg/kg | Mouse Antitumor Efficacy at Optimum Dose, % T/C (P-388 leukemia; mouse, in vivo, ip): 262% and > 360% | Optimum Dose (P-388 leukemia; mouse, in vivo, ip): 0.0125 mg/kg and 0.0063 mg/kg | Mouse Antitumor Efficacy at Optimum Dose, % T/C (B-16 Melanoma; mouse, in vivo, ip): > 138% and 123%

COc1cccc2c1C(=O)c1c(O)c3c(c(O)c1C2=O)C[C@@](O)(C(C)=O)C[C@@H]3O[C@H]1C[C@H](N2CCSCC2)[C@H](O)[C@H](C)O1
T/C vs mouse leukemia P388 [3]: 169% | dose required vs mouse leukemia P388 [3]: 50 mg/kg

COc1cccc2c1C(=N)c1c(O)c3c(c(O)c1C2=O)C[C@@](O)(C(O)CO)C[C@@H]3O[C@H]1C[C@H](N2CCOCC2)[C@H](O)[C@H](C)O1 (stereo partly shown) [NSC 355465, 3'-deamino-3'-(4"-morpholinyl)-5-imino-13-dihydrodoxorubicin]
IC50 [1, 6]: > 100000 nM | IC50 [2, 8]: 24000 nM | Survival Time, % T/C [3, 7]: 161%

COc1cccc2c1C(=O)c1c(O)c3c(c(O)c1C2=O)C[C@@](O)(C(C)O)C[C@@H]3O[C@H]1C[C@H](N2CCOCC2)[C@H](O)[C@H](C)O1 (stereo partly shown) [NSC 327450, 3'-deamino-3'-(4"-morpholinyl)-13-dihydrodaunorubicin]
IC50 [1, 9]: 2200 nM | Mouse Antitumor Efficacy at Optimum Dose, % T/C (B-16 Melanoma; section "ip B16", d 1, ip): 121% | IC50 [2, 10]: 670 nM | Survival Time, % T/C [3, 7]: 132%

COc1cccc2c1C(=O)c1c(O)c3c(c(O)c1C2=O)C[C@@](O)(C(C)=O)C[C@@H]3O[C@H]1C[C@H](N2CCOCC2)[C@H](O)[C@H](C)O1 [NSC 327451, 3'-deamino-3'-(4"-morpholinyl)daunorubicin]
Mouse Antitumor Efficacy at Optimum Dose, % T/C (P-388 leukemia; ip P388, d 1, ip): 155% | Optimum Dose (P-388 leukemia; ip P388, d 1, ip): 0.25 mg/kg | Mouse Antitumor Efficacy at Optimum Dose, % T/C (P-388 leukemia; ip P388, d 1, iv): 152% | Optimum Dose (P-388 leukemia; ip P388, d 1, iv): 0.5 mg/kg | IC50 [1, 9]: 760 nM | Mouse Antitumor Efficacy at Optimum Dose, % T/C (B-16 Melanoma; section "ip B16", d 1, ip): 135% | IC50 [2, 10]: 100 nM | active dose relative to the dose of doxorubicin (mouse leukemia P388; prior art, P388): one-fortieth the dose of doxorubicin | T/C value against P388 (mouse leukemia P388; prior art): 166% | Survival Time, % T/C [3, 7]: 166%

COc1cccc2c1C(=O)c1c(O)c3c(c(O)c1C2=O)C[C@@](O)(C(C)=O)C[C@@H]3O[C@H]1C[C@H](N(Cc2ccccc2)Cc2ccccc2)[C@H](O)[C@H](C)O1 [N,N-dibenzyldaunorubicin]
interaction with DNA in vitro (DNA): fail to interact with DNA in vitro | activity in mouse leukemia P388 screen (mouse leukemia P388): most active new analogues so far | dose requirement in P388 screen (mouse leukemia P388): required significantly higher doses

COc1cccc2c1C(=N)c1c(O)c3c(c(O)c1C2=O)C[C@@](O)(C(=O)CO)C[C@@H]3O[C@H]1C[C@H](N2CCOCC2)[C@H](O)[C@H](C)O1 [NSC 355277, 3'-deamino-3'-(4"-morpholinyl)-5-iminodoxorubicin]
Mouse Antitumor Efficacy at Optimum Dose, % T/C (P-388 leukemia; ip P388, d 1, ip): > 193% | Optimum Dose (P-388 leukemia; ip P388, d 1, ip): 2 mg/kg | Mouse Antitumor Efficacy at Optimum Dose, % T/C (P-388 leukemia; ip P388, d 1, iv): 166% | Optimum Dose (P-388 leukemia; ip P388, d 1, iv): 2.5 mg/kg

CCCCC(=O)OCC(=O)[C@]1(O)Cc2c(O)c3c(c(O)c2[C@@H](O[C@H]2C[C@H](NC(=O)C(F)(F)F)[C@H](O)[C@H](C)O2)C1)C(=O)c1c(OC)cccc1C3=O [AD32]
interaction with DNA in vitro (DNA): fail to interact with DNA in vitro | activity in mouse leukemia P388 screen (mouse leukemia P388): most active new analogues so far | dose requirement in P388 screen (mouse leukemia P388): required significantly higher doses

COc1cccc2c1C(=O)c1c(O)c3c(c(O)c1C2=O)C[C@@](O)(C(=O)CO)C[C@@H]3O[C@H]1C[C@H](N)[C@H](O)[C@H](C)O1 [doxorubicin]
Mouse Antitumor Efficacy at Optimum Dose, % T/C (P-388 leukemia; mouse, in vivo): 185% | Optimum Dose (P-388 leukemia; mouse, in vivo): 10 mg/kg | Mouse Antitumor Efficacy at Optimum Dose, % T/C (P-388 leukemia; mouse, in vivo, ip): 252% and 257% and > 285% | heart damage in chronic treatment (heart): irreversible heart damage that can be fatal if continued | IC50 [1, 6]: 1500 nM | response of patients with some serious tumor types (colon cancer, melanoma) [5]: essentially no patients with some serious tumor types (colon cancer, melanoma) respond | IC50 [2, 8]: 580 nM | T/C value against P388 (mouse leukemia P388; prior art): 160% | T/C vs mouse leukemia P388 [3]: 160% | dose required vs mouse leukemia P388 [3]: 8 mg/kg | Survival Time, % T/C ([3]; mouse, in vivo): 160%

COc1cccc2c1C(=O)c1c(O)c3c(c(O)c1C2=O)C[C@@](O)(C(C)O)C[C@@H]3O[C@H]1C[C@H](N2CCC(OC)CC2)[C@H](O)[C@H](C)O1 (stereo partly shown) [NSC 334354, 3'-deamino-3'-(4'-methoxy-1-piperidinyl)-13-dihydrodaunorubicin]
IC50 [1, 9]: 580 nM | IC50 [2, 10]: 80 nM | Survival Time, % T/C [3, 7]: 199%

COc1cccc2c1C(=N)c1c(O)c3c(c(O)c1C2=O)C[C@@](O)(C(=O)CO)C[C@@H]3O[C@H]1C[C@H](N)[C@H](O)[C@H](C)O1 [5-iminodoxorubicin]
antitumor activity, side effects and dosage [4]: showed enhanced activity but required higher dosages
